{"source": "patent US10542747B2", "about": "“Plant irrigation methods with 1-MCP” (Syngenta Participations AG, priority 2010, dated 2020)", "key": {"[1]": {"details": "cited from earlier work"}, "[2]": {"test_system": "Wheat plants, variety ARINA", "test": "Effect of 1-MCP on stressed wheat plants grown in pouches (drought stress)", "format": "in vivo", "details": "200 ppm in the pouch water at day 8; 5 days without watering at 26° C.; FIG. 1", "method": "FIG. 1 illustrates wheat plants grown in pouches. On the right-hand side plants treated with 1-MCP and on the left-hand side non treated check plants.\n10 mL of the mixture are added per pouch with a pipette.\n20 to 25 Wheat kernels from the variety ARINA were sown in a plastic bag (pouch) with an absorbent paper, watered and grown under optimal conditions in a climate chamber for 8 days. At day 8 the 1-MCP in the form of an α-cyclodextrin molecularly encapsulated powder was applied at a 200 ppm rate to the water in the pouch. After application the plants were not watered anymore, but placed in a warm environment at 26° C. After 5 days without watering the differences of treated vs. untreated were evaluated visually (FIG. 1)."}, "[3]": {"test_system": "5-6 leaf tomato plants (var. Rutgers)", "test": "Tomato epinasty test (Cerone/ethephon challenge)", "format": "in vivo", "details": "average of 8 plants"}, "[4]": {"test_system": "5-6 leaf tomato plants (var. Rutgers)", "test": "Tomato epinasty test (Cerone/ethephon challenge)", "format": "in vivo", "details": "200 l/ha, average of 8 plants", "method": "Bioassay test material: 5-6 leaf tomato plants (var. Rutgers), 8 reps/treatment.\nThe first column of table 1 provides a summary of change in angle of the 3rd leaf petiole at 24 hours after application of Cerone (ethephon). There are two sets of data, one for those challenged with Cerone at 4 hours after 1-MCP formulation application and a second set for plants challenged with Cerone at 24 hrs after 1-MCP formulation application. Data are the averages of 8 replicate plants\nProcedures Used for Epinasty Test:\n1-MCP formulation and rates: 1-MCP in the form of an α-cyclodextrin molecularly encapsulated powder dispersed in an aqueous MgSO4 solution\nStandard foliar spray at 200 l/ha and 0.035% v/v kinetic silicon adjuvant 0, 10 and 20 g ai/ha\nApplication rate 500 g ai/ha at 400 l/ha application volume\nApplication at 4 and 24 HAA of Invinsa\nAngle of 3rd petiole to plants stem measured prior to 1-MCP application and again at 24 HAT Final data expressed as average change in 3rd petiole angle"}}, "data": [{"molecule": "CC1=CC1", "note": "[1-MCP, 1-methylcyclopropene]", "values": [{"measurement": "water-solubility", "setting": "[1]", "result": 137, "unit": "mg I−1"}, {"measurement": "drought tolerance of treated vs. untreated plants, evaluated visually", "setting": "[2]", "result": "greater drought tolerance than control plants"}, {"measurement": "Average change in angle of third petiole", "setting": "[3]; 1 g ai/ha chemigation, Cerone applied 4 HAA 1-MCP", "result": 60}, {"measurement": "Average change in angle of third petiole", "setting": "[3]; 1 g ai/ha chemigation, Cerone applied 24 HAA 1-MCP", "result": 78}, {"measurement": "Average change in angle of third petiole", "setting": "[3]; 10 g ai/ha chemigation, Cerone applied 4 HAA 1-MCP", "result": 20}, {"measurement": "Average change in angle of third petiole", "setting": "[3]; 10 g ai/ha chemigation, Cerone applied 24 HAA 1-MCP", "result": 48}, {"measurement": "Average change in angle of third petiole", "setting": "[3]; 20 g ai/ha chemigation, Cerone applied 4 HAA 1-MCP", "result": "−9"}, {"measurement": "Average change in angle of third petiole", "setting": "[3]; 20 g ai/ha chemigation, Cerone applied 24 HAA 1-MCP", "result": 41}, {"measurement": "Average change in angle of third petiole", "setting": "[3]; >20 g ai/ha chemigation (incorrect pump calibration), Cerone applied 4 HAA 1-MCP", "result": "−4"}, {"measurement": "Average change in angle of third petiole", "setting": "[3]; >20 g ai/ha chemigation (incorrect pump calibration), Cerone applied 24 HAA 1-MCP", "result": 18}, {"measurement": "Average change in angle of third petiole", "setting": "[4]; 10 g ai/ha foliar spray, Cerone applied 4 HAA 1-MCP", "result": 71}, {"measurement": "Average change in angle of third petiole", "setting": "[4]; 10 g ai/ha foliar spray, Cerone applied 24 HAA 1-MCP", "result": 82}, {"measurement": "Average change in angle of third petiole", "setting": "[4]; 20 g ai/ha foliar spray, Cerone applied 4 HAA 1-MCP", "result": 40}, {"measurement": "Average change in angle of third petiole", "setting": "[4]; 20 g ai/ha foliar spray, Cerone applied 24 HAA 1-MCP", "result": 86}]}]}
